test system: flexible GA-rich RNA, 5'-U(GAAG)2GU (RNA, single strand) UGAAGGAAGGU; experiment: fluorescence polarization (intrinsic ligand fluorescence); conditions: Na+ 50 mM; 25 mM MES, 0.002% Triton X, pH 6.1, 25 °C, 0.1 μM ligand

Row | Kd | SMILES
1 | 3.06 ± 0.3 µM | CCN1CCN(c2ccc3cc(-c4cc(F)c5nc(C)cn5c4)c(=O)oc3c2)C[C@@H]1C
2 | 14.1 ± 0.9 µM | CCN1CCN(c2ccc3cc(-c4cn5cc(C)nc(C)c5n4)c(=O)oc3c2)C[C@@H]1C
3 | 22.1 ± 2.7 µM | COc1c(N2CCN[C@@H](C)C2)ccc2cc(-c3cc(F)c4nc(C)cn4c3)c(=O)n(C)c12
4 | 29.7 ± 3.0 µM | COc1ccc2nc(-c3cc4ccc(N5CCNCC5)cc4oc3=O)cn2c1
5 | 10.7 ± 0.1 µM | COc1ccn2cc(-c3cc4ccc(N5CCNCC5)cc4oc3=O)nc2c1
6 | 71.0 ± 2.3 µM | Cc1cn2cc(-c3cc4ccc(N5CC6CCC(C5)N6)cc4oc3=O)cc(F)c2n1
7 | 2.7 ± 0.1 µM | Cc1cn2cc(-c3cc4ccc(N5CCN(CC6CC6)[C@@H](C)C5)cc4oc3=O)cc(F)c2n1
8 | 78.1 ± 9.7 µM | Cc1cn2cc(-c3cc4ccc(N5CCN[C@@H](C)C5)cc4n(-c4ccccc4)c3=O)cc(F)c2n1
9 | 38.9 ± 6.6 µM | Cc1cn2cc(-c3nc4ccc(N5CCN[C@@H](C)C5)cc4s3)c(F)cc2n1
10 | 35.7 ± 0.01 µM | Cc1cn2cc(-c3nc4sc(N5CCN(C)CC5)cc4s3)cc(F)c2n1
11 | > 100 µM | Cc1nc2c(F)cc(-c3cc4ccc(N5CCN[C@@H](C)C5)cc4oc3=O)cc2o1
12 | 21.8 ± 0.2 µM | O=c1oc2cc(N3CCNCC3)ccc2cc1-c1cn2ccc(C(F)(F)F)cc2n1
13 | 25.9 ± 6.0 µM | O=c1oc2cc(N3CCNCC3)ccc2cc1-c1cn2ccc(Cl)cc2n1
14 | 14.5 ± 1.3 µM | O=c1oc2cc(N3CCNCC3)ccc2cc1-c1cn2ccccc2n1

test system: flexible GA-rich RNA, 5'-U(GAAG)2GU (RNA, single strand) UGAAGGAAGGU; experiment: fluorescence polarization; conditions: Na+ 50 mM; 25 mM MES pH 6.1, 0.002% Triton X, 25 °C; ligand fluorescence

Row | Kd | SMILES
15 | 39.7 ± 11.5 µM | CCn1c(=O)c(-c2cc(F)c3nc(C)cn3c2)cc2ccc(N3CCN[C@@H](C)C3)cc21
16 | 42.8 ± 2.7 µM | CN1CCN(c2cc(F)c3cc(-c4ccc(Cl)cc4)c(=O)oc3c2)CC1
17 | 37.2 ± 1.0 µM | CN1CCN(c2ccc3cc(-c4ccc(Cl)cc4)c(=O)oc3c2)CC1
18 | 19.3 ± 2.3 µM | CNC1CCN(c2ccc3cc(-c4cc(F)c5nc(C)cn5c4)c(=O)oc3c2)C1 (centres unmarked)
19 | 16.7 ± 0.5 µM | CNC1CCN(c2ccc3cc(-c4cc(F)c5nc(C)cn5c4)c(=O)oc3c2)CC1
20 | 39.6 ± 0.4 µM | COc1cn2cc(-c3cc4ccc(N5CCNCC5)cc4oc3=O)nc2cn1
21 | 11.6 ± 0.01 µM | C[C@H]1CN(c2ccc3cc(-c4cc(F)c5c(cnn5C)c4)c(=O)oc3c2)CCN1
22 | 12.6 ± 0.4 µM | C[C@H]1CN(c2ccc3cc(-c4cc(F)c5nn(C)cc5c4)c(=O)oc3c2)CCN1
23 | 19.3 ± 0.9 µM | Cc1cn2cc(-c3cc4c(C)cc(N5CCN[C@@H](C)C5)cc4oc3=O)cc(F)c2n1
24 | 32.0 ± 2.1 µM | Cc1cn2cc(-c3cc4ccc(N5CC6(CNC6)C5)cc4oc3=O)cc(F)c2n1
25 | 10.7 ± 0.9 µM | Cc1cn2cc(-c3cc4ccc(N5CC6CC(C5)N6)cc4oc3=O)cc(F)c2n1
26 | 13.5 ± 2.0 µM | Cc1cn2cc(-c3cc4ccc(N5CC6CCCNC6C5)cc4oc3=O)cc(F)c2n1 (centres unmarked)
27 | 18.2 ± 1.9 µM | Cc1cn2cc(-c3cc4ccc(N5CC6CNCC6C5)cc4oc3=O)cc(F)c2n1 (centres unmarked)
28 | 10.88 ± 0.3 µM | Cc1cn2cc(-c3cc4ccc(N5CCN(C)CC5)cc4oc3=O)cc(F)c2n1
29 | 40.4 ± 6.5 µM | Cc1cn2cc(-c3cc4ccc(N5CCN(C)CC5)cc4oc3=O)nc2c(C)n1
30 | 12.0 ± 0.4 µM | Cc1cn2cc(-c3cc4ccc(N5CCN(CC6CCOCC6)[C@@H](C)C5)cc4oc3=O)cc(F)c2n1
31 | 11.1 ± 2.8 µM | Cc1cn2cc(-c3cc4ccc(N5CCN[C@@H](C)C5)c(C)c4oc3=O)cc(F)c2n1
32 | 33.3 ± 1.3 µM | Cc1cn2cc(-c3cc4ccc(N5CCN[C@@H](C)C5)cc4[nH]c3=O)cc(F)c2n1
33 | 42.6 ± 15.2 µM | Cc1cn2cc(-c3cc4ccc(N5CCN[C@@H](C)C5)cc4n(CC4CC4)c3=O)cc(F)c2n1
34 | 40.1 ± 5.2 µM | Cc1cn2cc(-c3cc4ccc(N5CCN[C@@H](C)C5)cc4n(CCO)c3=O)cc(F)c2n1
35 | 16.4 ± 1.1 µM | Cc1cn2cc(-c3cc4ccc(N5CCN[C@@H](C)C5)cc4n4cnnc34)cc(F)c2n1
36 | 14.3 ± 1.1 µM | Cc1cn2cc(-c3cc4ccc(N5CCN[C@@H](C)C5)cc4oc3=O)cc(F)c2n1
37 | 11.9 ± 0.9 µM | Cc1cn2cc(-c3cc4ccc(N5CCN[C@@H](CO)C5)cc4oc3=O)cc(F)c2n1
38 | 15.6 ± 0.7 µM | Cc1cn2cc(-c3cc4ccc(NC5CNC5)cc4oc3=O)cc(F)c2n1
39 | 39.9 ± 11.5 µM | Cc1nccn2cc(-c3cc4ccc(N5CCN[C@@H](C)C5)cc4oc3=O)nc12
40 | 34.1 ± 0.6 µM | O=c1oc2cc(N3CCNCC3)ccc2cc1-c1ccc2ccccc2c1
41 | 17.8 ± 3.9 µM | O=c1oc2cc(N3CCNCC3)ccc2cc1-c1ccc2ncccc2c1

From paper PMC12188297 (2025)
